Results on 1 compound are retold here after US20060046972A1, “Cytotoxic nucleoside analog compound 003 for treating cancer” (Parker Hughes Institute, priority 2004, published 2006).

Assay [1] relates to DU145 prostate cancer cells. Kind of assay: Confocal laser scanning microscopy of mitotic spindle, DU145. To be noted: 100 μM. The class given is cell-based, human. The protocol: (§1) Immunofluorenscence was used to examine the spindle features of human cancer cell lines treated with Compound 003 or 0.5% DMSO. Initially, cells at log phase were seeded onto sterile 22 mm coverslips in six -well culture plates. 24 hours later, the cells were treated with compound 003 for 2 hours at 37° C., 5% C02, fixed in methanol (−20° C. 15 min) followed by a 15 minute incubation with PBS +0.1.% Tx-100. The coverslips were incubated with antibodies raised against α-tubulin, γ-tubulin (Sigma Chemical Co., St Louis, Mo.) (40 min 37° C.), washed in PBS-Tx-100, and incubated with an appropriate secondary antibody conjugated to FITC (Jackson ImmunoResearch, Westgrove, Pa.). Cellular DNA was labeled with 5 μM TOTO3 (Molecular Probes, Eugene, Oreg.) for 20 minutes. Coverslips were immediately inverted onto slides in Vectashield (Vector Labs, Burlingame, Calif.) to prevent photobleaching, sealed with nail varnish and stored at −20° C. The slides were examined using a Bio-Rad MRC-1024 Laser Scanning Confocal Microscope equipped with a Kr/Ar laser (BioRad, Hercules, Calif.) mounted on a Nikon Eclipse E800 upright microscope with high numerical aperture objectives (Nikon, Melville, N.Y.). Digital data were processed using Lasersharp (BioRad) and Adobe Photoshop software (Adobe Systems, Mountain View, Calif.). […]

Assay [2] deals with MDA-MB breast cancer cells. Put plainly: Confocal laser scanning microscopy of mitotic spindle, MDA-MB. The class given is cell-based, human. The protocol: as §1
The next assay has as its system U373 glioblastoma cells. Kind of assay: Confocal laser scanning microscopy of mitotic spindle, U373. The conditions noted are these: 100 μM. The class given is cell-based, human. The protocol:
as §1

Assay [3] deals with human T leukemia/lymphoma (JURKAT). Put plainly: DNA flow cytometry of cell cycle arrest, JURKAT. The class given is cell-based. To be noted: 100 μM, 48 hour. The protocol: (§2) Exponentially growing tumor cells were cultured at 1×10^6 cells/ml in clonogenic medium (RPMI 1640 medium +1% penicillin/streptomycin +10% heat-inactivated fetal bovine serum, 2 mML-glutamine, and 10 mM Hepes buffer) in the presence or absence of 100 μM compound 003 for 48 hour at 37° C., 5% CO2. At 48 h, cells were washed two times in fresh clonogenic medium, trypsinized, fixed in ice cold ethanol and labeled with propidium iodide to quantify their DNA content, as described previously (See, for example, Navara, et al., 2001, Anticancer Drugs. 12:369). Quantitative DNA analysis was performed on a Becton Dickenson Calibur flow cytometer equipped with a Consort 40 computer using the COTFIT program, which includes CELLCY, a cell cycle distribution function that fits DNA content histograms and calculates-the percentages of cells in G, S, and GM phases of the cell cycle, as described, for example, in Uckun et al., 1996, J Biol Chem. 271, 6389.
A general note: In flow cytometry, cells or beads pass a laser one at a time.

In assay [4] the test system is human infant leukemia (RS4; 11). Put plainly: DNA flow cytometry of cell cycle arrest, RS4;11. The conditions noted are these: 100 μM, 48 hour. The class given is cell-based. How it is done: as §2
Assay [5] deals with Microsomal or cytosolic fractions of Nalm6 cells. Put plainly: Enzyme kinetics of Compound 003 metabolism in subcellular fractions, Nalm6. The class given is in vitro ADME, human. How it is done:
1−3×10^8 Nalm6 and BT20 cells were washed with PBS, resuspended in homogenizing buffer containing 10 mM Tris-HCl (pH 7.4) and 250 mM sucrose. Cells were sonicated and spun at 10,000×g, and the resulting supernatant was centrifuged again at 100,000×g to isolate microsomal and cytosolic fractions. The microsomal pellet was resuspended in a buffer containing 10 mM Tris-HCl (pH 7.4), 250 mM sucrose, 1 mM EDTA, and 20% glycerol. Microsomes or cytosols of Nalm6 (80 μg. and 86 μg, respectively) and BT20 cells (59 μg and 160 μg, respectively) were preincubated with or without 1 mM paraoxon in Tris-HCl buffer (pH 7.4) in a total volume of 250 μl for 10 minutes; 1. mM COMPOUND 003 was then added to the incubation mixture, and the reactions were allowed to proceed for another 30 minutes and terminated by addition of 125 μl of acetone. Protein precipitation was then removed by centrifugation; 100 μl of the supernatant was injected directly into the HPLC.
2.2.9 Enzyme Kinetics of Compound 003 Metabolism Microsomal or cytosolic fractions of Nalm6 and BT20 cells were incubated with COMPOUND 003 at various concentrations from 10 μM to 1.2 mM in similar reaction conditions as described above, except without the inhibitor. The reactions were allowed to proceed for 40 minutes. Km and Vmax in the Michaelis-Menten model were estimated by WinNonlin program (Scientific Consulting, Inc.)

On to `COC(=O)C(C)NP(=O)(OCC1OC(n2cc(C)c(=O)[nH]c2=O)CC1N=[N+]=[N-])Oc1ccc(OC)cc1` (stereo not drawn) [Compound 003, 3′-azidothymidine 5′-[p-methoxyphenylmethoxyalaninyl phosphate]], for which the mitotic spindle formation result in assay [1] was “induced aberrant multipolar spindle formation”; in assay [2] it was “induced aberrant multipolar (instead of normal bipolar) spindle formation”; with U373 glioblastoma cells, “induced aberrant multipolar spindle formation”. Besides, the cell cycle arrest result in assay [3] and in assay [4] was “G2M cell cycle arrest” in each case. In addition, the values for the Michaelis constant (Km) in assay [5] (cytosolic fraction) and in assay [5] (microsomal fraction) were 765 µM and 163 µM, respectively. The maximal velocity (Vmax) (as a rule, the top rate of the reaction or transport when substrate is in excess) in assay [5] (cytosolic fraction) came out at 541 pmol/mg/min; in assay [5] (microsomal fraction), 82.3 pmol/mg/min.
